Marks after values point to notes of the source that are not given here. Ends that are not written are not given here.
Tests used:
white blood cells [1] = assay type: in vivo
Protocol: (§1) Body weight (BW) was recorded at autopsy.
The effect of a potent HN analog HNG (HN-S14G) (5mg/KG/day, IP) with and without concomitant cyclophosphamide (CP, 200 mg IP) treatment was administered to 4 adult healthy mice in each group. Another four mice served as controls. Two days after treatment, the animals were killed and their peripheral blood cells were collected and the blood cell counts were assessed by a blood cell counter.

white blood cells [2] = assay type: in vivo; settings: CP 200 mg IP single dose, melanoma-bearing mice (FIG. 2)
Protocol: The effect of a potent HN analog HNG (HN-S14G) with or without cyclophosphamide (CP) in a mouse melanoma with lung metastasis model was studied. Five mice were used as control (Con) and 40 mice were inoculated intravenously with B16 murine melanoma cells. Of these mice five received no further treatment (NT). A week later the remaining 35 mice (n=5 per group) were treated for additional 2 weeks with: • 1) HNG 0.05 mg/KG body weight (BW) daily IP injection for 2 weeks; • 2) HNG 0.5 mg mg/Kg BW daily IP injection for 2 weeks; • 3) HNG 5 mg/Kg BW daily IP injection for 2 weeks; • 4) a single CP (200 mg IP single dose) injection+HNG 0.05 mg/KG body weight (BW) daily IP injection for 2 weeks; • 5) a single CP (200 mg IP single dose) injection+HNG 0.5 mg mg/Kg BW daily IP injection for 2 weeks; • 6) a single CP (200 mg IP single dose) injection HNG 0.5 mg mg/Kg BW daily IP injection for 2 weeks; • 7) a single CP (200 mg IP single dose) injection+HNG 5 mg mg/Kg BW daily IP injection.
All mice were sacrificed three weeks after tumor inoculation and two weeks after CP/HNG treatment. Blood was obtained for the measurement of white blood cell (WBC) count by a Coulter Counter.

[3] = test system: peripheral blood leucocytes
Protocol: (§2) Mice were injected with heparin (1300 IU/kg BW, ip) 15 min before sacrifice by sodium pentobarbital (200 mg/kg BW IP). Body weight (BW) was recorded at autopsy. Blood samples were collected from the right ventricle of each mouse immediately after death and used for complete blood count using an automated cell counter (VetScanHM2, ABAXIS, Union City, Calif.). Plasma was separated and stored at −20° C. for subsequent HNG, IGF-1 and IGFBP-1 measurements by specific and sensitive ELISA assays as previously described (Chin et al., Endocrinology. 2013; 154:3739-44; Hwang et al, Growth Horm IGF Res 2008; 18: 65-74).
(§3) Twenty-five young adult (12-week-old) male mice (C57BL/6J) were used for this experiment in which 5 mice were used as control and 20 mice of each were intravenously inoculated via the tail vein with 1×10^5 murine B16 melanoma cells. 20 tumor-bearing mice were randomly divided into 4 groups with 5 mice in each group received 1) no treatment; 2) HNG alone; 3) CP alone; and 4) a combination treatment with the doses and duration described above.

IGF-1 [4] = test: Plasma IGF-1 levels (ELISA) in B16 tumor-bearing mice; assay type: in vivo, mouse; settings: treatment alone, tumor-bearing mice (FIG. 3B)
Protocol: as §2, §3

[5] = test system: murine B16 melanoma cells; test: Lung melanoma metastases in B16 tumor-bearing mice; assay type: in vivo, mouse; settings: treatment alone vs non-treated tumor-bearing mice
Text: In this study the tumor loading dose was 1×10^5 B16 cells per mouse to examine the effects of HNG on peripheral blood leucocytes, plasma IGF-1 and IGFBP-1 levels while confirming its additive or synergistic effect on CP-induced suppression of lung melanoma metastases. Twenty-five young adult (12-week-old) male mice (C57BL/6J) were used for this experiment in which 5 mice were used as control and 20 mice of each were intravenously inoculated via the tail vein with 1×10^5 murine B16 melanoma cells. 20 tumor-bearing mice were randomly divided into 4 groups with 5 mice in each group received 1) no treatment; 2) HNG alone; 3) CP alone; and 4) a combination treatment with the doses and duration described above.

[6] = test system: red blood cell or platelet; test: Red blood cell and platelet counts in B16 tumor-bearing mice
Protocol: as §2, §3

IGF-1 [7] = test: Plasma IGF-1 levels among groups in healthy mice (Table 6); assay type: in vivo, mouse; settings: mean ± SEM
Protocol: as §1

IGFBP-1 = test: Plasma IGFBP-1 levels among groups in healthy mice (Table 6); assay type: in vivo, mouse; settings: mean ± SEM
Protocol: as §1

peripheral leucocytes = test: Peripheral leucocytes among treatment groups of healthy mice (Table 7); assay type: in vivo, mouse; settings: mean ± SEM
Protocol: as §1

germ cells = settings: cited from earlier work
cells = settings: HN mutant compared with HN; cited from earlier work
[8] = mouse, in vivo
Protocol: as §2, §3

[9] = mouse, in vivo; remark: listed apart in the source
[10] = during in vivo treatment with CP (Drumond, et al., 2011)

Compound: O=P1(N(CCCl)CCCl)NCCCO1 (stereo not shown) [CP, cyclophosphamide monohydrate]
- granulocyte count in the blood, of baseline value (white blood cells [1]; CP 200 mg IP alone, two days after CP treatment (FIG. 1B)): about 25%
- WBC, fraction of the baseline counts (white blood cells [1]; CP 200 mg IP alone, two days after treatment (FIG. 1A)): about ⅕
- WBC count, fraction of control values (white blood cells [2]): about ⅓
- number of white blood cells ([3]; CP alone vs non-treated tumor-bearing mice (FIG. 4A)): significantly suppressed
- granulocytes ([3]; CP alone vs non-treated tumor-bearing mice (FIG. 4B)): significantly suppressed
- monocytes ([3]; CP alone vs non-treated tumor-bearing mice (FIG. 4C)): significantly suppressed
- lymphocytes ([3]; CP alone vs non-treated tumor-bearing mice (FIG. 4D)): significantly suppressed
- plasma IGF-1 levels (IGF-1 [4]): significantly suppressed
- number of metastatic tumors in the lungs [5]: significantly decreased
- platelet counts [6]: no significant decreases
- red blood cell counts [6]: no significant decreases
- IGF-1 (ng/ml) (IGF-1 [7]): 182.4 ± 10.5^c ng/ml
- IGFBP-1 (ng/ml) (IGFBP-1): 7.4 ± 1.3^b ng/ml
- Granulocytes (10^6/ml) (peripheral leucocytes): 0.2 ± 0.02^b 10^6/ml
- Lymphocytes (10^6/ml) (peripheral leucocytes): 0.07 ± 0.01^b 10^6/ml
- Monocytes (10^6/ml) (peripheral leucocytes): 0.01 ± 0.01^b 10^6/ml
- Total WBC (10^6/ml) (peripheral leucocytes): 0.3 ± 0.02^b 10^6/ml
- differentiated germ cells of mice (germ cells; [10]): eliminated
- undifferentiated germ cells remained (germ cells; [10]): about half
- germ cells regenerated from undifferentiated stem cells (germ cells; once CP treatment was stopped (Drumond, et al., 2011)): about 64%

Compound: HN-C8A: Cys8 to Ala; MAPRGFSALLLLTSEIDLPVKRRA (SEQ ID NO: 42)
- Cytoprotective Action (cells): Not effective, prevents

Compound: HN-C8P: MAPRGFSPLLLLTSEIDLPVKRRA (SEQ ID NO: 25); Cys8 to Pro
- Cytoprotective Action (cells): Not effective, blocks

Compound: HN-F6A: MAPRGASCLLLLTSEIDLPVKRRA (SEQ ID NO: 22); Phe6 to Ala
- Cytoprotective Action (cells): Similar/more effective

Compound: HN-L12A: HN mutant, Leu12 to Ala (MAPRGFSCLLLATSEIDLPVKRRA; Humanin; UniProt Q8IVG9 1-24, looked up, variant L12A)
- Cytoprotective Action (cells): HN antagonist, forms

Compound: HN-S7A: MAPRGFACLLLLTSEIDLPVKRRA (SEQ ID NO: 24); Ser7 to Ala
- Cytoprotective Action (cells): Not effective, prevents

Compound: HN: MAPRGFSCLLLLTSEIDLPVKRRA (SEQ ID NO: 1); 24-amino acid mitochondrial derived peptide
- total number of white blood cells (WBC) (white blood cells [1]; HNG 5mg/KG/day IP alone, adult healthy mice, two days after treatment, vs controls (FIG. 1A)): increased slightly but significantly

Compound: MAPRGFSCLLLLTGEIDLPVKRRA [HNG]
- plasma HNG levels [8]: increased
- HNG (ng/ml) [9]: 80.8 ± 7.8^b ng/ml

— patent US20170216399A1, “COMPOSITIONS, METHODS AND USES FOR PROTECTING WHITE BLOOD CELLS FROM SUPPRESSION OR DEATH” (LOS ANGELES BIOMEDICAL RESEARCH INSTITUTE AT HARBO-UCLA …, priority 2014, published 2017)
